± gives the uncertainty stated by the source.
Test: xn = mol fraction of the nth substance listed

SMILES: CCOP(=O)(OCC)OCC + CN(C)C=O
- viscosity (298.15 K, 101.3 kPa, x1 = 0.1003): 0.883 ± 0.021 mPa·s
- viscosity (298.15 K, 101.3 kPa, x1 = 0.2008): 0.967 ± 0.021 mPa·s
- viscosity (298.15 K, 101.3 kPa, x1 = 0.298): 1.044 ± 0.021 mPa·s
- viscosity (298.15 K, 101.3 kPa, x1 = 0.398): 1.123 ± 0.021 mPa·s
- viscosity (298.15 K, 101.3 kPa, x1 = 0.4979): 1.195 ± 0.021 mPa·s
- viscosity (298.15 K, 101.3 kPa, x1 = 0.6076): 1.268 ± 0.021 mPa·s
- viscosity (298.15 K, 101.3 kPa, x1 = 0.6995): 1.329 ± 0.021 mPa·s
- viscosity (298.15 K, 101.3 kPa, x1 = 0.7969): 1.389 ± 0.022 mPa·s
- viscosity (298.15 K, 101.3 kPa, x1 = 0.8973): 1.447 ± 0.022 mPa·s

SMILES: CCc1ccccc1 + CN(C)C=O
- viscosity (303.15 K, 101.33 kPa, x2 = 0.0997): 0.597 ± 0.005 mPa·s
- viscosity (303.15 K, 101.33 kPa, x2 = 0.1997): 0.614 ± 0.005 mPa·s
- viscosity (303.15 K, 101.33 kPa, x2 = 0.2999): 0.631 ± 0.005 mPa·s
- viscosity (303.15 K, 101.33 kPa, x2 = 0.4154): 0.652 ± 0.005 mPa·s
- viscosity (303.15 K, 101.33 kPa, x2 = 0.5109): 0.667 ± 0.005 mPa·s
- viscosity (303.15 K, 101.33 kPa, x2 = 0.584): 0.679 ± 0.005 mPa·s
- viscosity (303.15 K, 101.33 kPa, x2 = 0.6991): 0.696 ± 0.005 mPa·s
- viscosity (303.15 K, 101.33 kPa, x2 = 0.8014): 0.709 ± 0.005 mPa·s
- viscosity (303.15 K, 101.33 kPa, x2 = 0.8872): 0.719 ± 0.005 mPa·s
- viscosity (313.15 K, 101.33 kPa, x2 = 0.0997): 0.542 ± 0.004 mPa·s
- viscosity (313.15 K, 101.33 kPa, x2 = 0.1996): 0.556 ± 0.004 mPa·s
- viscosity (313.15 K, 101.33 kPa, x2 = 0.2997): 0.568 ± 0.004 mPa·s
- viscosity (313.15 K, 101.33 kPa, x2 = 0.4154): 0.584 ± 0.005 mPa·s
- viscosity (313.15 K, 101.33 kPa, x2 = 0.5109): 0.597 ± 0.005 mPa·s
- viscosity (313.15 K, 101.33 kPa, x2 = 0.584): 0.608 ± 0.005 mPa·s
- viscosity (313.15 K, 101.33 kPa, x2 = 0.6991): 0.625 ± 0.005 mPa·s
- viscosity (313.15 K, 101.33 kPa, x2 = 0.8014): 0.641 ± 0.005 mPa·s
- viscosity (313.15 K, 101.33 kPa, x2 = 0.8872): 0.652 ± 0.005 mPa·s

SMILES: Clc1ccccc1 + CN(C)C=O
- viscosity (303.15 K, 101.33 kPa, x2 = 0.1076): 0.731 ± 0.006 mPa·s
- viscosity (303.15 K, 101.33 kPa, x2 = 0.2986): 0.76 ± 0.006 mPa·s
- viscosity (303.15 K, 101.33 kPa, x2 = 0.397): 0.767 ± 0.006 mPa·s
- viscosity (303.15 K, 101.33 kPa, x2 = 0.6054): 0.773 ± 0.006 mPa·s
- viscosity (303.15 K, 101.33 kPa, x2 = 0.7013): 0.774 ± 0.006 mPa·s
- viscosity (303.15 K, 101.33 kPa, x2 = 0.7925): 0.771 ± 0.006 mPa·s
- viscosity (303.15 K, 101.33 kPa, x2 = 0.8973): 0.754 ± 0.006 mPa·s
- viscosity (313.15 K, 101.33 kPa, x2 = 0.397): 0.69 ± 0.005 mPa·s
- viscosity (313.15 K, 101.33 kPa, x2 = 0.5024): 0.694 ± 0.005 mPa·s
- viscosity (313.15 K, 101.33 kPa, x2 = 0.6054): 0.695 ± 0.005 mPa·s
- viscosity (313.15 K, 101.33 kPa, x2 = 0.7013): 0.694 ± 0.005 mPa·s
- viscosity (313.15 K, 101.33 kPa, x2 = 0.7925): 0.688 ± 0.005 mPa·s

SMILES: N#CCCCCC#N + CN(C)C=O
- viscosity (303.15 K, 101.33 kPa, x1 = 0.1051): 0.9087 ± 0.0058 mPa·s
- viscosity (303.15 K, 101.33 kPa, x1 = 0.2983): 1.335 ± 0.0081 mPa·s
- viscosity (303.15 K, 101.33 kPa, x1 = 0.3971): 1.636 ± 0.0098 mPa·s
- viscosity (303.15 K, 101.33 kPa, x1 = 0.4957): 2.001 ± 0.012 mPa·s
- viscosity (303.15 K, 101.33 kPa, x1 = 0.5919): 2.413 ± 0.014 mPa·s
- viscosity (303.15 K, 101.33 kPa, x1 = 0.6983): 2.957 ± 0.017 mPa·s
- viscosity (303.15 K, 101.33 kPa, x1 = 0.8486): 3.821 ± 0.022 mPa·s

SMILES: OCCCCCO + CN(C)C=O
- viscosity (308.15 K, 101 kPa, x1 = 0.025): 0.759 ± 0.039 mPa·s
- viscosity (308.15 K, 101 kPa, x1 = 0.0483): 0.826 ± 0.042 mPa·s
- viscosity (308.15 K, 101 kPa, x1 = 0.1005): 1.025 ± 0.051 mPa·s
- viscosity (308.15 K, 101 kPa, x1 = 0.1877): 1.446 ± 0.069 mPa·s
- viscosity (308.15 K, 101 kPa, x1 = 0.2971): 2.284 ± 0.11 mPa·s
- viscosity (308.15 K, 101 kPa, x1 = 0.388): 3.676 ± 0.17 mPa·s
- viscosity (308.15 K, 101 kPa, x1 = 0.4882): 5.774 ± 0.25 mPa·s
- viscosity (308.15 K, 101 kPa, x1 = 0.586): 9.073 ± 0.37 mPa·s
- viscosity (308.15 K, 101 kPa, x1 = 0.6875): 14.59 ± 0.57 mPa·s
- viscosity (308.15 K, 101 kPa, x1 = 0.7802): 22.71 ± 0.9 mPa·s
- viscosity (308.15 K, 101 kPa, x1 = 0.9446): 49.91 ± 2.1 mPa·s
- viscosity (308.15 K, 101 kPa, x1 = 0.9714): 56.42 ± 1.9 mPa·s

SMILES: CCOP(=O)(OCC)OCC + CNC=O
- viscosity (298.15 K, 101.3 kPa, x1 = 0.0969): 1.719 ± 0.024 mPa·s
- viscosity (298.15 K, 101.3 kPa, x1 = 0.1954): 1.713 ± 0.023 mPa·s
- viscosity (298.15 K, 101.3 kPa, x1 = 0.294): 1.689 ± 0.023 mPa·s
- viscosity (298.15 K, 101.3 kPa, x1 = 0.399): 1.654 ± 0.023 mPa·s
- viscosity (298.15 K, 101.3 kPa, x1 = 0.5004): 1.625 ± 0.023 mPa·s
- viscosity (298.15 K, 101.3 kPa, x1 = 0.5987): 1.599 ± 0.022 mPa·s
- viscosity (298.15 K, 101.3 kPa, x1 = 0.6978): 1.571 ± 0.022 mPa·s
- viscosity (298.15 K, 101.3 kPa, x1 = 0.799): 1.546 ± 0.022 mPa·s
- viscosity (298.15 K, 101.3 kPa, x1 = 0.8929): 1.524 ± 0.022 mPa·s

SMILES: CCCCn1cc[n+](C)c1.F[P-](F)(F)(F)(F)F + CO
- viscosity (298.15 K, 101 kPa, x1 = 0.7082): 45.95 ± 3 mPa·s

SMILES: CCc1ccccc1 + CO
- viscosity (298.15 K, 101 kPa, x2 = 0.1406): 0.6135 ± 0.016 mPa·s
- viscosity (298.15 K, 101 kPa, x2 = 0.3326): 0.6134 ± 0.016 mPa·s
- viscosity (298.15 K, 101 kPa, x2 = 0.5278): 0.6258 ± 0.016 mPa·s
- viscosity (298.15 K, 101 kPa, x2 = 0.6721): 0.6323 ± 0.016 mPa·s
- viscosity (298.15 K, 101 kPa, x2 = 0.7828): 0.6247 ± 0.016 mPa·s
- viscosity (298.15 K, 101 kPa, x2 = 0.8113): 0.618 ± 0.016 mPa·s
- viscosity (298.15 K, 101 kPa, x2 = 0.8848): 0.5991 ± 0.015 mPa·s
- viscosity (308.15 K, 101 kPa, x2 = 0.1406): 0.5262 ± 0.014 mPa·s
- viscosity (308.15 K, 101 kPa, x2 = 0.3326): 0.5283 ± 0.014 mPa·s
- viscosity (308.15 K, 101 kPa, x2 = 0.5278): 0.5395 ± 0.014 mPa·s
- viscosity (308.15 K, 101 kPa, x2 = 0.6721): 0.5368 ± 0.014 mPa·s
- viscosity (308.15 K, 101 kPa, x2 = 0.7828): 0.525 ± 0.014 mPa·s
- viscosity (308.15 K, 101 kPa, x2 = 0.8113): 0.5202 ± 0.013 mPa·s
- viscosity (308.15 K, 101 kPa, x2 = 0.8848): 0.5052 ± 0.013 mPa·s

SMILES: COC(C)(C)C + CO
- viscosity (298.15 K, 101 kPa, x1 = 0.0512): 0.547 ± 0.01 mPa·s
- viscosity (298.15 K, 101 kPa, x1 = 0.0994): 0.536 ± 0.01 mPa·s
- viscosity (298.15 K, 101 kPa, x1 = 0.1991): 0.488 ± 0.009 mPa·s
- viscosity (298.15 K, 101 kPa, x1 = 0.3011): 0.455 ± 0.008 mPa·s
- viscosity (298.15 K, 101 kPa, x1 = 0.4015): 0.436 ± 0.008 mPa·s
- viscosity (298.15 K, 101 kPa, x1 = 0.4993): 0.42 ± 0.008 mPa·s
- viscosity (298.15 K, 101 kPa, x1 = 0.6001): 0.402 ± 0.008 mPa·s
- viscosity (298.15 K, 101 kPa, x1 = 0.7001): 0.387 ± 0.007 mPa·s
- viscosity (298.15 K, 101 kPa, x1 = 0.8007): 0.376 ± 0.007 mPa·s
- viscosity (298.15 K, 101 kPa, x1 = 0.8998): 0.366 ± 0.007 mPa·s
- viscosity (298.15 K, 101 kPa, x1 = 0.9494): 0.36 ± 0.007 mPa·s
- viscosity (298.15 K, 101.33 kPa, x1 = 0.0048): 0.549 ± 0.019 mPa·s
- viscosity (298.15 K, 101.33 kPa, x1 = 0.0234): 0.547 ± 0.019 mPa·s
- viscosity (298.15 K, 101.33 kPa, x1 = 0.0483): 0.544 ± 0.019 mPa·s
- viscosity (298.15 K, 101.33 kPa, x1 = 0.0818): 0.535 ± 0.019 mPa·s
- viscosity (298.15 K, 101.33 kPa, x1 = 0.1136): 0.526 ± 0.019 mPa·s
- viscosity (298.15 K, 101.33 kPa, x1 = 0.1601): 0.51 ± 0.018 mPa·s
- viscosity (298.15 K, 101.33 kPa, x1 = 0.1987): 0.496 ± 0.018 mPa·s
- viscosity (298.15 K, 101.33 kPa, x1 = 0.2377): 0.483 ± 0.018 mPa·s
- viscosity (298.15 K, 101.33 kPa, x1 = 0.2656): 0.475 ± 0.017 mPa·s
- viscosity (298.15 K, 101.33 kPa, x1 = 0.3162): 0.462 ± 0.017 mPa·s
- viscosity (298.15 K, 101.33 kPa, x1 = 0.3736): 0.446 ± 0.017 mPa·s
- viscosity (298.15 K, 101.33 kPa, x1 = 0.4299): 0.433 ± 0.016 mPa·s
- viscosity (298.15 K, 101.33 kPa, x1 = 0.481): 0.42 ± 0.016 mPa·s
- viscosity (298.15 K, 101.33 kPa, x1 = 0.5141): 0.413 ± 0.016 mPa·s
- viscosity (298.15 K, 101.33 kPa, x1 = 0.5796): 0.399 ± 0.015 mPa·s
- viscosity (298.15 K, 101.33 kPa, x1 = 0.6163): 0.394 ± 0.015 mPa·s
- viscosity (298.15 K, 101.33 kPa, x1 = 0.7002): 0.382 ± 0.015 mPa·s
- viscosity (298.15 K, 101.33 kPa, x1 = 0.7768): 0.37 ± 0.014 mPa·s
- viscosity (298.15 K, 101.33 kPa, x1 = 0.8313): 0.363 ± 0.014 mPa·s
- viscosity (298.15 K, 101.33 kPa, x1 = 0.898): 0.356 ± 0.014 mPa·s
- viscosity (298.15 K, 101.33 kPa, x1 = 0.9429): 0.346 ± 0.014 mPa·s

Reference: the CheMixHub viscosity set
